Measured values: the supplement of paper PMC10307832

How the values were obtained:
Experiment in all cases: relative viability (nuclei count vs DMSO), 5 days (fraction); higher = more cells survive
FH535 + OSI-027 = compound: CC1=C(C=CC(=C1)[N+](=O)[O-])NS(=O)(=O)C2=C(C=CC(=C2)Cl)Cl [FH535] + COc1cccc2cc(-c3nc([C@H]4CC[C@H](C(=O)O)CC4)n4ncnc(N)c34)[nH]c12 [OSI-027] (partner 0.5 µM)
Outline: (§1)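 Relative viability divides the nuclei count in treated wells by that in vehicle wells. Lung cancer cell lines were seeded in 1536-well plates, dosed by pin tool the next day, and fixed and stained after 5 days in one step with final 0.05% Triton X-100, 1% formaldehyde and 1 ug/ml Hoechst. Dosing was a single drug or a fixed anchor-drug dose plus five library-drug doses (not always all listed) in √10 steps, and values are medians of duplicate plates imaged at 4×.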

FH535 + Trametinib = compound: CC1=C(C=CC(=C1)[N+](=O)[O-])NS(=O)(=O)C2=C(C=CC(=C2)Cl)Cl [FH535] + CC(=O)Nc1cccc(-n2c(=O)n(C3CC3)c(=O)c3c(Nc4ccc(I)cc4F)n(C)c(=O)c(C)c32)c1 [Trametinib] (partner 0.02 µM)
Outline: as §1

FH535 + Luminespib = compound: CC1=C(C=CC(=C1)[N+](=O)[O-])NS(=O)(=O)C2=C(C=CC(=C2)Cl)Cl [FH535] + CCNC(=O)c1noc(-c2cc(C(C)C)c(O)cc2O)c1-c1ccc(CN2CCOCC2)cc1 [Luminespib] (partner 0.01 µM)
Outline: as §1

FH535 + Vorinostat = compound: CC1=C(C=CC(=C1)[N+](=O)[O-])NS(=O)(=O)C2=C(C=CC(=C2)Cl)Cl [FH535] + O=C(CCCCCCC(=O)Nc1ccccc1)NO [Vorinostat] (partner 1 µM)
Outline: as §1

FH535 + AZD7762 = compound: CC1=C(C=CC(=C1)[N+](=O)[O-])NS(=O)(=O)C2=C(C=CC(=C2)Cl)Cl [FH535] + NC(=O)Nc1cc(-c2cccc(F)c2)sc1C(=O)N[C@H]1CCCNC1 [AZD7762] (partner 0.2 µM)
Outline: as §1

Cell Line | relative viability (FH535 + OSI-027; first compound 0.04 µM) | relative viability (FH535 + OSI-027; first compound 0.1265 µM) | relative viability (FH535 + OSI-027; first compound 0.4 µM) | relative viability (FH535 + OSI-027; first compound 1.265 µM) | relative viability (FH535 + Trametinib; first compound 0.04 µM) | relative viability (FH535 + Trametinib; first compound 0.1265 µM) | relative viability (FH535 + Trametinib; first compound 0.4 µM) | relative viability (FH535 + Trametinib; first compound 1.265 µM) | relative viability (FH535 + Luminespib; first compound 0.04 µM) | relative viability (FH535 + Luminespib; first compound 0.1265 µM) | relative viability (FH535 + Luminespib; first compound 0.4 µM) | relative viability (FH535 + Luminespib; first compound 1.265 µM) | relative viability (FH535 + Vorinostat; first compound 0.04 µM) | relative viability (FH535 + Vorinostat; first compound 0.1265 µM) | relative viability (FH535 + Vorinostat; first compound 0.4 µM) | relative viability (FH535 + Vorinostat; first compound 1.265 µM) | relative viability (FH535 + AZD7762; first compound 0.04 µM) | relative viability (FH535 + AZD7762; first compound 0.1265 µM) | relative viability (FH535 + AZD7762; first compound 0.4 µM) | relative viability (FH535 + AZD7762; first compound 1.265 µM)
EKVX | 0.676 | 0.778 | 0.618 | 0.618 | 0.319 | 0.391 | 0.292 | 0.293 | 0.876 | 0.935 | 0.859 | 0.764 | 0.403 | 0.819 | 0.693 | 0.222 | 0.77 | 0.661 | 0.631 | 0.559
EMC-BAC-2 | 0.339 | 0.402 | 0.395 | 0.364 | 0.804 | 0.9 | 0.869 | 0.892 | 1.21 | 1.23 | 1.12 | 1.04 | 0.297 | 0.449 | 0.419 | 0.308 | 0.828 | 1.06 | 1.04 | 0.985
EPLC-272H | 0.27 | 0.296 | 0.279 | 0.238 | 0.272 | 0.296 | 0.299 | 0.262 | 0.277 | 0.357 | 0.505 | 0.197 | 0.442 | 0.42 | 0.437 | 0.406 | 0.241 | 0.226 | 0.259 | 0.206
H3255 | 0.564 | 0.583 | 0.648 | 0.505 | 0.563 | 0.604 | 0.582 | 0.55 | 0.849 | 0.892 | 0.911 | 0.44 | 0.804 | 0.753 | 0.729 | 0.654 | 0.806 | 0.918 | 0.853 | 0.788
HARA | 0.41 | 0.441 | 0.418 | 0.427 | 0.759 | 0.711 | 0.643 | 0.461 | 0.52 | 0.869 | 0.726 | 0.446 | 0.376 | 0.489 | 0.511 | 0.341 | 0.19 | 0.426 | 0.305 | 0.358
HCC-15 | 0.554 | 0.631 | 0.574 | 0.463 | 0.288 | 0.358 | 0.406 | 0.316 | 0.287 | 0.302 | 0.255 | 0.302 | 0.733 | 0.85 | 0.838 | 0.696 | 1.18 | 1.21 | 1.06 | 1.13
HCC-44 | 0.494 | 0.458 | 0.407 | 0.321 | 1.06 | 0.986 | 1.03 | 0.967 | 1.09 | 1.16 | 1.02 | 0.575 | 1.11 | 1.1 | 1.03 | 0.818 | 1 | 0.961 | 0.898 | 0.866
HCC-78 | 0.374 | 0.334 | 0.357 | 0.38 | 0.694 | 0.713 | 0.602 | 0.665 | – | – | – | – | 0.408 | 0.429 | 0.479 | 0.414 | 0.644 | 0.888 | 0.618 | 0.468
